From patent US5358936A, “Anionic furanose derivatives, methods of making and using the same” (Gordon; Paul, priority 1991, dated 1994)
Values joined by “and” are separate entries in the source; they are usually repeats but may differ in a detail not shown here. Identical values can stand only once. “Also recorded” adds a separate entry of the source.

Experiments:
hind limbs = assay: Hind-foot mobility in established adjuvant arthritis (Example 27); assay type: in vivo, Lewis rats; conditions: Compound III 50 mg/kg oral where given
From the text: Adjuvant arthritis was studied because it allows gaining of insight into effects of a drug in established and chronic inflammatory disease. Adjuvant arthritis shares certain features with rheumatoid arthritis but it is distinct. It is widely used in industry because it allows one to predict the potency of non-steroidal anti-inflammatory drugs (NSAID's) [Weichman, in Pharmaceutical Methods in the Control of Inflammation, Chang et al., eds.; Alan R. Liss, New York (1989) p. 362].
The rats used were of the Lewis strain, especially vulnerable to disease induction. Chronic polyarthritis was induced by the subcutaneous injection of complete Freund's adjuvant (CFA) into the rat tail. The CFA employed consists of 10 mg/ml heat-killed tubercle bacilli suspended in paraffin oil. An amount of 0.1 ml was injected, and the disease was allowed to develop over 14 days before daily assessments were made and treatments were initiated. Measurements that assess both increase in hind paw joint swelling and loss in hind limb function are taken.
Indomethacin was employed as a reference standard and given at 2 or 5 mg/kg. Treatment effects of Compound III, alone at 50 mg/kg given by oral gavage and in combination with indomethacin were assessed. Compound III was dissolved in water and indomethacin was suspended in water by homogenization. Both were administered sequentially by oral gavage.
Measurements by caliper include the lateral diameter of the ankle joint of each hind limb, and the dorsoventral diameter of the foot, just behind the toes. The prime measurement of function focusses on the fact that in many animals by day 14, and in most animals by day 16 after adjuvant administration, the arthritic rat can lose use of his hind limbs, which then are dragged behind him like logs. To quantify the recovery of function during treatment, a technique of Martel et al., Agents Actions, 15:403 (1984) was adapted. A blind assessment of the number of animals in each group that were able to draw their leg(s) under them and have these bear weight was carried out.

stomach ulcers = assay: Gastric ulcers in rats with corona virus infection treated with indomethacin (Example 26); assay type: in vivo, rat; conditions: indomethacin 30 mg/kg oral; cimetidine 25 mg/kg s.c. or Compound III 17.5 mg/kg s.c. where given; P<0.02
From the text: Corona virus is a non-lethal upper respiratory viral pathogen that not infrequently infects rat colonies. It is a type of rodent coryza or catarrh, the equivalent of a disease that falls somewhere between human influenza and a severe common cold. The animals of this study suffered from this condition, a circumstance which was evident by observation, and which was confirmed by virological diagnosis at the Biological Resources Laboratory of the University of Illinois at Chicago. Since stress is a common component of peptic ulcer development in both animals and man, it was concluded that this feature of the status of these experimental animals rendered them appropriate for an ulcer study.
In this study, animals were not food deprived and were divided into treatment groups such that 15 rats received 30 mg/kg indomethacin alone (in water by oral gavage), 14 rats received indomethacin plus an injection of 25 mg/kg cimetidine subcutaneously, and 7 rats received indomethacin plus subcutaneous injection of 17.5 mg/kg of Compound III.
All animals were sacrificed by ether euthanasia 24 hours later and their stomachs evaluated for ulcer pathology. In this study ulcers were not hemorrhagic. Results are shown below as the average number of stomach ulcers per stomach.

rat paw = conditions: in vivo; cited from earlier work
rat stomachs [1] = assay: Gastric pathology following inflammatory stress and indomethacin, food-deprived rats (Example 21); assay type: in vivo
Experimental: (§1) Stress was induced by the following procedure. On day one, under ether anesthesia, 18 male Sprague Dawley rats were injected with a suspension of Zymosan A (1 mg/ml in normal saline; Sigma Chemical Co.) in each hind paw. Swelling developed and persisted. This treatment generated activated blood complement locally (including the C5a moiety), which then spread by the bloodstream throughout the animal.
(§2) Twenty-four hours later all rat paws were reinjected, this time with 0.1 ml of proinflammatory zymosan-activated rat serum containing additional amounts of inflammatory complement fragment C5a (as in Example 23, hereinafter). Five hours later 30 mg/kg indomethacin in an aqueous suspension was given to nine such rats by oral garage. These rats also received a subcutaneous injection of 0.1 ml normal saline. Nine other such rats were given indomethacin as above, and Compound III (50 mg/kg in normal saline subcutaneously). Four additional rats, not stressed (normal) were given water by garage as a placebo and saline subcutaneously. All rats were fed ad libitum on standard diet.
In contrast to the study of Example 20, above, in this study animals were food deprived for 24 hours before and also during the 24 hours following drug treatments. All animals were subjected to the inflammatory stress as described in Example 20. Eight such rats received 30 mg/kg indomethacin, and eight rats received indomethacin and Compound III (subcut., 50 mg/kg). Four rats, not stressed, were given placebo by garage.
All animals were sacrificed by ether euthanasia 24 hours later, and their stomachs evaluated for ulcer-related pathology.
In the stressed animals given indomethacin alone, pathology was much more severe than in Example 20. For scoring, therefore, the frequency of ulcers per rat stomach was quantified, and whether they were or were not bleeding.

rat stomachs [2] = assay: Gastric pathology following inflammatory stress and indomethacin, fed rats (Example 20); assay type: in vivo, male Sprague Dawley rats; conditions: stress + indomethacin 30 mg/kg oral; Compound III 50 mg/kg subcutaneously where given; 24 hours
Experimental: as §1, §2
Twenty-four hours later all animals were sacrificed by ether euthanasia. Their stomachs were washed with saline and evaluated for ulcer-related pathology using an illuminated magnifying glass. This assay is similar to that reported by Kinney et al., J. Med. Chem., 33:327 (1990).

rat stomachs [3] = assay: as above; set-up: species or system male Sprague Dawley rats; conditions: in vivo
gastric mucosal ulcers = assay: Healing of established gastric ulcers induced by acetic acid (Example 34); assay type: in vivo, rat
From the text: To evaluate drug effects on peptic ulcer healing, gastric mucosal ulcers were produced in rats, after a two day fast, by a modification of the method of Konturek et al., Am. J. Med., Vol. 86, 6A, 32 (1989). Briefly, to produce a mucosal ulcer, Konturek et al. applied 100 percent acetic acid for twenty seconds to the stomach serosa through a small cylindrical mold, 4.2 mm in diameter. The aim here was to make ulceration more severe than was achieved by the Konturek group so that spontaneous healing would not be as pronounced as they found in the controls, over an experimental period of seven days.
All drugs studied were suspended in 0.25 percent (by weight) aqueous methylcellulose solution as the vehicle or diluent, which also served as the placebo given to the controls. Treatments were given once daily by oral gavage, in one milliliter of vehicle. The treatment groups were: Control; Sucralfate at 200 mg/kg; and Compound III:Al at 200 mg/kg.
At the end of the treatment period, stomachs were removed, ulcer diameters were measured, and determination was made of the presence or absence of perforation.
A second study was carried out in which ulcer evolution was permitted to take place over five additional days, in the absence and presence of treatment with Sucralfate.
A third study was begun one day following the start of study 2, in which ulcer evolution was allowed to take place over five additional days, in the absence and presence of treatment with Compound III:Al.
In another study, after ulcer induction as above, a different dosage protocol was employed at 24 hours to evaluate the interaction of Compound III and orally administered sucralfate on ulcer healing. […] Here, daily drug doses of the following were used: (a) sucralfate at 200 mg/kg, alone and (b) in combination with 80 mg/kg Compound III given by mouth at -45 minutes, and, in a third group, (c) in combination with 10 mg/kg Compound III given IV also at -45 minutes. In this interaction study, drug treatment was continued for three and not five days, as was the case for the above studies, followed by passage of two additional non-treatment days before sacrifice of animals for evaluation of stomach ulcer area and perforation.
Data from all ulcer-healing studies employing a drug dosage of 200 mg/kg and the same ulcerogenesis protocol were pooled as to the frequency of gastric perforation observed on day five, not shown separately, with the day six perforation data shown above.

[4] = Physicians' Desk Reference (1990); cited from earlier work
[5] = Solubility / dissolution in acid, water and 20 percent methanol; assay type: physicochemical; conditions: pH 1.2; Compound III:Al 2.5 mg/ml
focal submucosal lesions [6] = assay: Ethanol-induced gastric focal lesions (Example 33); assay type: in vivo, rat
Experimental: At three hours after ethanol administration, this drug continued to suppress ethanol-induced focal lesions (-57 percent).
A suspension of 25 mg/kg sucralfate+25 mg/kg Compound III:Al in combination was given as a pretreatment administration to another group in the same study. The combination produced an unanticipated augmentation of therapeutic effect against ethanol-induced focal submucosal lesions (-90 percent) at three hours post-ethanol administration. The same interactive phenomenon was also observed when Compound III was used, rather than Compound III:Al.

[7] = Dissolution and buffering of suspensions, HCl titration (Example 16)
From the text: Note that the term "apparent pK" in this context is meant to encompass the maximization of buffering that come both from solid-state dissolution and its titration as solute.

focal submucosal lesions [8] = assay: Ethanol-induced gastric focal lesions (Example 33); assay type: in vivo, rat; conditions: one hour post-ethanol, 50 mg/kg
[9] = three hours post-ethanol, 50 mg/kg, combination 25 + 25 mg/kg

For `COc1ccc2c(c1)c(CC(=O)O)c(C)n2C(=O)c1ccc(Cl)cc1` [Indomethacin], the “Total Immobility - Percent” value (hind limbs; Day 0, indomethacin 2 mg/kg/day) was 100%, the “Total Immobility - Percent” value (hind limbs; Day 0, indomethacin 5 mg/kg/day) was 100% and the “Total Immobility - Percent” value (hind limbs; Day 1, indomethacin 2 mg/kg/day, p < 0.02) was 67%. For the same compound, the “Total Immobility - Percent” value (hind limbs; Day 1, indomethacin 5 mg/kg/day, p < 0.01) was 70%, the “Total Immobility - Percent” value (hind limbs; Day 2, indomethacin 2 mg/kg/day, p < 0.01) was 44% and the “Total Immobility - Percent” value (hind limbs; Day 2, indomethacin 5 mg/kg/day) was 20%. For the same compound, the “Total Immobility - Percent” value (hind limbs; Day 3, indomethacin 2 mg/kg/day) was 44%, the “Total Immobility - Percent” value (hind limbs; Day 3, indomethacin 5 mg/kg/day, control 100 (12/12)) was 10% and the “Ulcer Frequency per stomach, Mn ± SE” value (stomach ulcers) was 2.53 ± 0.52 Per Stomach. For the same compound, the “effect on edema that develops following removal of the tourniquet, in words” value (rat paw) was “not effective at any time”, the “bleeding ulcers in group” value (rat stomachs [1]; eight rats) was 22 and the “total ulcers found in group” value (rat stomachs [1]; eight rats) was 23 ulcers. For the same compound, the “Bleeding Ulcer Frequency, Mn ± SE” value (rat stomachs [1]; indomethacin 30 mg/kg, Compound III 50 mg/kg subcut. where given, 24 hours, P<0.001 vs indomethacin alone) was 2.65 ± 0.063 Per Rat, the “Total Ulcer Frequency, n ± SE” value (rat stomachs [1]; indomethacin 30 mg/kg, Compound III 50 mg/kg subcut. where given, 24 hours, P<0.01 vs indomethacin alone) was 2.88 ± 0.67 Per Rat and the “ulcers per affected rat” value (rat stomachs [1]; indomethacin: all eight rats, indomethacin + Compound III: only two rats) was 1-5 ulcers. The “Mean Pathology score” value (rat stomachs [2]) was 1.43, the “Pathology score, individual rat” value (rat stomachs [2]) was 0.5 and 1.0 and 0.0 and 4.0 and 7.0 and the “ulceration by indomethacin without stress” value (rat stomachs [3]) was “induced no ulceration”.

For “sucrose octakis-(hydrogen sulfate) aluminum complex [sucralfate, reference compound]”, the “DRUG EFFECT on mean ulcer score” value (gastric mucosal ulcers; Day 6, 200 mg/kg oral) was -33%, the “Established ulcer score, individual animal (area in cm^2, + 2.0 for perforation)” value (gastric mucosal ulcers; Day 6, 200 mg/kg oral once daily, * = perforation, 200 mg/kg) was 2.96 and 5.75 and 3.0 and 1.0 and 0.96 and 3.5 and 1.5 and 0.1 and 1.05 and 0.4 and the “MEAN SCORE, established ulcers” value (gastric mucosal ulcers; Day 6, 200 mg/kg oral, controls 3.03 ± 0.73 (sucralfate study, not significant), 4.12 ± 0.67 (Compound III:Al study, P < 0.001)) was 2.02 ± 0.55. For the same compound, the “DRUG EFFECT on mean ulcer area” value (gastric mucosal ulcers; day six, 200 mg/kg oral) was -43%, the “Established ulcer area, MEAN” value (gastric mucosal ulcers; day six, 200 mg/kg oral, controls 2.14 ± 0.43 (sucralfate, P < 0.1), 2.32 ± 0.61 (Compound III:Al, P < 0.05)) was 1.22 ± 0.31 CM^2 and the “Established ulcer area, MEAN (comparative treatments)” value (gastric mucosal ulcers; day six, three days treatment, sucralfate 200 mg/kg alone) was 2.11 ± 0.41 CM^2. The “Perforation As Percent” value (gastric mucosal ulcers; pooled, 200 mg/kg, control 50, Compound III:Al P < 0.001 vs control and vs sucralfate) was 38%, the “Perforation Frequency” value (gastric mucosal ulcers; pooled, 200 mg/kg, days five and six, control 26/52) was 12/32 and the “absorption from the gastrointestinal tract” value [4] was “only minimally absorbed”. The “dissolution of suspension in acid” value [5] was “complete dissolution”, the “effect on ethanol-produced gastric pathology, in words” value (focal submucosal lesions [6]; pretreatment 50 mg/kg one hour before ethanol) was “inhibited all focal submucosal lesions; also recorded: All large vessel vasodilation provoked by ethanol was also inhibited one hour after ethanol treatment; also recorded: at three hours all therapeutic effects of sucralfate on ethanol-produced gastric pathology were absent” and the “change in focal lesions versus control” value (focal submucosal lesions [6]; [9]) was “+6%”. The “change in focal lesions versus control, study employing Compound III” value (focal submucosal lesions [6]; [9]) was “+44%”, the “Focal Lesions per Stomach, study employing Compound III” value (focal submucosal lesions [6]; three hours post-ethanol, 50 mg/kg, combination 25 + 25 mg/kg, control 2.25 ± 0.98) was 3.25 + 1.01 per Stomach and the “Focal Lesions per Stomach” value (focal submucosal lesions [6]; three hours post-ethanol, 50 mg/kg, combination 25 + 25 mg/kg, n = 17, control 4.94 ± 1.41) was 5.24 ± 1.49 per Stomach. For the same compound, the “HCl needed to lower pH of suspension to below pH 2.00” value ([7]; 50 mg in 20 ml distilled water, initial pH 4.44 (aluminum trihydroxide), 4.91 (sucralfate), 4.23 (Compound III:Al), water alone 0.30) was 0.4 meq, the “buffering action, in words” value ([7]; HCl titration) was “only a minor buffering action between pH 1.73 and 1.47” and the “Relative Buffering Power between pH 4.5 and 2.0” value ([7]; sucralfate = 1) was 1. For the same compound, the “change in focal lesions versus control” value (focal submucosal lesions [8]) was -100% and the “Focal Lesions per Stomach” value (focal submucosal lesions [8]; n = 6, control 4.17 ± 1.58, p<0.05) was 0.00 per Stomach.
